Measured values reported in patent US20100063065A1 (Inpharmatica Limited, priority 2005, published 2010).
pEC50: −log10 of the molar value. Structures can show the parent of a compound that is named as a salt.

What follows are molecules tested against T1, PPARδ (Homo sapiens, UniProt Q03181) (assay: Transactivation assay (PPARδ GAL4 assay) in transiently transfected HEK293 cells). Settings: luciferase reporter, Table 1.
T1 construct: fused to amino acids 147-441 of PPARδ downstream of CMV promoter; expressed in transfected cells; host or cells: HEK293 cells, transiently transfected with pFACMV-PPARδ using Fugene
T1 sequence (Q03181 147-441): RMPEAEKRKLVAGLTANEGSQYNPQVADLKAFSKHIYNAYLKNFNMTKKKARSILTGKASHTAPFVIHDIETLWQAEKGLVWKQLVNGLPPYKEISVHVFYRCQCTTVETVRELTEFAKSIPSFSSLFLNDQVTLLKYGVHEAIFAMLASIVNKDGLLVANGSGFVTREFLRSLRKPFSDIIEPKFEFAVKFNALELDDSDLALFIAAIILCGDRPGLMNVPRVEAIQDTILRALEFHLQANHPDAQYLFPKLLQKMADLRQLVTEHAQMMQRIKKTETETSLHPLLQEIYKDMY
Type: cell-based
Experimental: Compounds were screened for their functional potency in transiently transfected HEK293 cells for their ability to activate PPAR subtypes. Cells were cultured in DMEM (Invitrogen) supplemented with 10% foetal calf serum, glutamine, penicillin and streptomycin and plated at 10 000 cells/well of a 96-well solid white plate and incubated at 37° C./5% CO2 for 24 hours. Media was removed and the cells washed with PBS. Cells were then transiently transfected using Fugene (Roche) with 50 ng pFACMV-PPARδ (plasmid encoding amino acids 1-147 of the GAL4 DNA binding domain, fused to amino acids 147-441 of PPARδ downstream of CMV promoter) and 250 ng pFR-Luc (reporter plasmid containing 5×GAL4 response elements upstream of a luciferase gene), using a ratio of 3:1 Fugene:DNA. 100 μl of this transfection mixture in DMEM (without foetal calf serum) was added to each well, and the incubation continued for a further 24 hours. The cells are then again washed with PBS prior to the addition of 100 μl reduced serum medium (OptiMEM; Invitrogen). Compounds were added (10 μl in 2% DMSO in OptiMEM) to achieve final concentrations between 0-30 μM. The cells were then returned to the incubator for a further 24 hours. 100 μl of luciferase reagent (Bright Glo, Promega) was added directly to each well, and the luminescence determined using a suitable luminometer.
To measure the selectivity of compounds, their ability to transactivate GAL4 fusions of PPARα LBD and PPARγ LBD was determined. The activity of compounds was expressed as a percentage relative to control compounds: PPARγ rosiglitazone (BRL 49653), PPARδ GW501516 (11) or PPARα KCL1999000269 (12). EC50 values were calculated by fitting of the data to a sigmoidal dose response curve.

Row | Compound | pEC50
1 | CCc1cc(C(=O)c2ccc(OC(C)C)cc2)c(NC(=O)CSCC(=O)O)s1 [Example 33, {[5-Ethyl-3-(4-isopropoxy-benzoyl)-thiophen-2-ylcarbamoyl]-methylsulfanyl}-acetic acid] | 6.00 to 7.00
2 | CCc1cc(C(=O)c2ccc(OC)cc2)c(NC(=O)CNCC(=O)O)s1 [Example 74, ({[5-Ethyl-3-(4-methoxy-benzoyl)-thiophen-2-ylcarbamoyl]-methyl}-amino)-acetic acid hydrochloride] | 4.52 to 6.00
3 | CCc1cc(C(=O)c2ccc(OC)c(OC)c2)c(NC(=O)CSCC(=O)O)s1 [Example 49, {[3-(3,4-Dimethoxybenzoyl)-5-ethyl-thiophen-2-ylcarbamoyl]-methylsulfanyl}-acetic acid] | 4.52 to 6.00
4 | CCc1cc(C(=O)c2ccc(-c3ccc(F)cc3)cc2)c(NC(=O)CSCC(=O)O)s1 [Example 40, {[5-Ethyl-3-(4′-fluoro-biphenyl-4-carbonyl)-thiophen-2-ylcarbamoyl]-methylsulfanyl}-acetic acid] | > 7.00
5 | CCc1cc(C(=O)c2ccc(OC)cc2)c(NC(=O)CSC(C)(C)C(=O)O)s1 [Example 5, 2-{[5-Ethyl-3-(4-methoxy-benzoyl)-thiophen-2-ylcarbamoyl]-methylsulfanyl}-2-methyl-propionic acid] | 6.00 to 7.00
6 | CCc1cc(C(=O)c2ccc(F)cc2)c(NC(=O)CSCC(=O)O)s1 [Example 18, {[5-Ethyl-3-(4-fluoro-benzoyl)-thiophen-2-ylcarbamoyl]-methylsulfanyl}-acetic acid] | 4.52 to 6.00
7 | CCc1cc(C(=O)c2ccc(C#N)cc2)c(NC(=O)CSCC(=O)O)s1 [Example 35, {[3-(4-Cyano-benzoyl)-5-ethyl-thiophen-2-ylcarbamoyl]-methylsulfanyl}-acetic acid] | 4.52 to 6.00
8 | CCc1cc(C(=O)c2ccc(Oc3ccccc3)cc2)c(NC(=O)CC(C)(C)CC(=O)O)s1 [Example 13, 4-[5-Ethyl-3-(4-phenoxy-benzoyl)-thiophen-2-ylcarbamoyl]-3,3-dimethyl-butyric acid] | 4.52 to 6.00
9 | CCc1cc(C(=O)c2ccc(-c3ccc(F)cc3)cc2)c(NC(=O)CNC(C)(C)C(=O)O)s1 [Example 83, 2-({[5-Ethyl-3-(4′-fluoro-biphenyl-4-carbonyl)-thiophen-2-ylcarbamoyl]-methyl}-amino)-2-methyl-propionic acid] | > 7.00
10 | CCc1cc(C(=O)c2ccc(-c3ccccc3)cc2)c(NC(=O)CC(C)(C)CC(=O)O)s1 [Example 37, 4-[3-(Biphenyl-4-carbonyl)-5-ethyl-thiophen-2-ylcarbamoyl]-3,3-dimethyl-butyric acid] | 6.00 to 7.00
11 | O=C(O)CSCC(=O)Nc1sc(C2CC2)cc1C(=O)c1ccc(F)cc1 [Example 64, {[5-Cyclopropyl-3-(4-fluoro-benzoyl)-thiophen-2-ylcarbamoyl]-methylsulfanyl}-acetic acid] | 4.52 to 6.00

Next, values leading:

Row | pEC50 | Compound
12 | > 7.00 | CCc1cc(C(=O)c2ccc(OC(F)(F)F)cc2)c(NC(=O)CNC(CC(C)C)C(=O)O)s1 (centres unmarked) [Example 77, 2-({[5-Ethyl-3-(4-trifluoromethoxy-benzoyl)-thiophen-2-ylcarbamoyl]-methyl}-amino)-4-methyl-pentanoic acid]
13 | > 7.00 | CCc1cc(C(=O)c2ccc(OC(F)(F)F)cc2)c(NC(=O)c2ccc(OCC(=O)O)c(C)c2)s1 [Example 101, {4-[5-Ethyl-3-(4-trifluoromethoxy-benzoyl)-thiophen-2-ylcarbamoyl]-2-methyl-phenoxy}-acetic acid]

Same assay, conditions: luciferase reporter, Table 2

Row | Compound | pEC50
14 | CCc1cc(C(=O)c2ccc(OC(F)(F)F)cc2)c(NC(=O)CNC2(C(=O)O)CCCCC2)s1 [Example 166, 1-({[5-Ethyl-3-(4-trifluoromethoxy-benzoyl)-thiophen-2-ylcarbamoyl]-methyl}-amino)-cyclohexanecarboxylic acid] | 6.00 to 7.00
15 | CCc1cc(C(=O)c2cc(C)n(C)n2)c(NC(=O)CSCC(=O)O)s1 [Example 144, {[3-(1,5-Dimethyl-1H-pyrazole-3-carbonyl)-5-ethyl-thiophen-2-ylcarbamoyl]-methylsulfanyl}-acetic acid] | 4.52 to 6.00
16 | O=C(CN1[C@@H](C(=O)O)CC[C@@H]1c1ccccc1)Nc1sc(Cl)cc1C(=O)c1ccc(OC(F)(F)F)cc1 [Example 188, (2R,5R)-1-{[5-Chloro-3-(4-trifluoromethoxy-benzoyl)-thiophen-2-ylcarbamoyl]-methyl}-5-phenyl-pyrrolidine-2-carboxylic acid hydrochloride] | > 7.00
17 | CCc1cc(C(=O)c2ccc(OC(F)(F)F)cc2)c(NC(=O)CN(C)C(C)(C)C(=O)O)s1 [Example 196, 2-({[5-Ethyl-3-(4-trifluoromethoxy-benzoyl)-thiophen-2-ylcarbamoyl]-methyl}-methyl-amino)-2-methyl-propionic acid] | 4.52 to 6.00
18 | CCc1cc(C(=O)c2ccc(OC(F)(F)F)cc2)c(NC(=O)CN2CCCCC2C(=O)O)s1 (centres unmarked) [Example 165, 1-{[5-Ethyl-3-(4-trifluoromethoxy-benzoyl)-thiophen-2-ylcarbamoyl]-methyl}-piperidine-2-carboxylic acid] | 6.00 to 7.00
19 | CCc1cc(C(=O)c2ccc(OC(F)(F)F)cc2)c(NC(=O)CN2CCC[C@H]2C(=O)O)s1 [Example 167, (S)-1-{[5-Ethyl-3-(4-trifluoromethoxy-benzoyl)-thiophen-2-ylcarbamoyl]-methyl}-pyrrolidine-2-carboxylic acid] | 4.52 to 6.00
20 | CCc1cc(C(=O)c2ccc(OC(F)(F)F)cc2)c(NC(=O)CNC2(C(=O)O)CCC2)s1 [Example 164, 1-({[5-Ethyl-3-(4-trifluoromethoxy-benzoyl)-thiophen-2-ylcarbamoyl]-methyl}-amino)-cyclobutanecarboxylic acid] | > 7.00

More lines, now with the values ahead:

Row | pEC50 | Compound
21 | > 7.00 | CCc1cc(C(=O)c2ccc(OC(F)(F)F)cc2)c(NC(=O)CS[C@@H](C)C(=O)O)s1 [Example 129, (S)-2-{[5-Ethyl-3-(4-trifluoromethoxy-benzoyl)-thiophen-2-ylcarbamoyl]-methylsulfanyl}-propionic acid]
22 | > 7.00 | CCc1cc(C(=O)c2ccc(OC(F)(F)F)cc2)c(NC(=O)CSC(CC)C(=O)O)s1 (centres unmarked) [Example 127, 2-{[5-Ethyl-3-(4-trifluoromethoxy-benzoyl)-thiophen-2-ylcarbamoyl]-methylsulfanyl}-butyric acid]
23 | > 7.00 | CCc1cc(C(=O)c2ccc(OC(F)(F)F)cc2)c(NC(=O)C(SCC(=O)O)c2ccccc2)s1 (centres unmarked) [Example 113, {[5-Ethyl-3-(4-trifluoromethoxy-benzoyl)-thiophen-2-ylcarbamoyl]-phenyl-methylsulfanyl}-acetic acid]
24 | 6.00 to 7.00 | CCc1cc(C(=O)c2ccc(OC(F)(F)F)cc2)c(NC(=O)C(C)NCC(=O)O)s1 (centres unmarked) [Example 158, {1-[5-Ethyl-3-(4-trifluoromethoxy-benzoyl)-thiophen-2-ylcarbamoyl]-ethylamino}-acetic acid]
25 | 6.00 to 7.00 | CCc1cc(C(=O)c2ccc(OC(F)(F)F)cc2)c(NC(=O)CN[C@H](C)C(=O)O)s1 [Example 161, (R)-2-({[5-Ethyl-3-(4-trifluoromethoxy-benzoyl)-thiophen-2-ylcarbamoyl]-methyl}-amino)-propionic acid]
26 | 4.52 to 6.00 | CCc1cc(C(=O)c2ccc(OC(F)(F)F)cc2)c(NC(=O)COc2ccc(OCC(=O)O)cc2)s1 [Example 117, (4-{[5-Ethyl-3-(4-trifluoromethoxy-benzoyl)-thiophen-2-ylcarbamoyl]-methoxy}-phenoxy)-acetic acid]
